Usually EC50 stands for the midpoint of the concentration-response curve.

Our source for the EC50 values is ChEMBL document CHEMBL1133591, “Potent derivatives of glucagon-like peptide-1 with pharmacokinetic properties suitable for once daily administration” (J Med Chem, 2000).

Numbered stars: 1 amine (or outer) side, 2 acyl side, 3 side chain; on linkers, the order of the positions; unused ones are H or OH. Side chains are listed from the residue outwards. Peptide text beside a SMILES is read from it. * marks the point of attachment. ξ: configuration not given here. Desaminohistidyl = O=C(CCc1c[nH]cn1)*; ξγGlu = O=C(O)C(CCC(=O)[*:2])N[*:1]; Palmitoyl = CCCCCCCCCCCCCCCC(=O)*; Octanoyl = CCCCCCCC(=O)*

This experiment addresses Glucagon-like peptide 1 receptor (Homo sapiens, UniProt P43220). As to the kind of experiment: Potency measured using recombinant human GLP-1 receptor expressed in Baby Hamster Kidney (BHK)cells. In kind it is cell-based.

Sequence of Glucagon-like peptide 1 receptor (P43220 whole entry): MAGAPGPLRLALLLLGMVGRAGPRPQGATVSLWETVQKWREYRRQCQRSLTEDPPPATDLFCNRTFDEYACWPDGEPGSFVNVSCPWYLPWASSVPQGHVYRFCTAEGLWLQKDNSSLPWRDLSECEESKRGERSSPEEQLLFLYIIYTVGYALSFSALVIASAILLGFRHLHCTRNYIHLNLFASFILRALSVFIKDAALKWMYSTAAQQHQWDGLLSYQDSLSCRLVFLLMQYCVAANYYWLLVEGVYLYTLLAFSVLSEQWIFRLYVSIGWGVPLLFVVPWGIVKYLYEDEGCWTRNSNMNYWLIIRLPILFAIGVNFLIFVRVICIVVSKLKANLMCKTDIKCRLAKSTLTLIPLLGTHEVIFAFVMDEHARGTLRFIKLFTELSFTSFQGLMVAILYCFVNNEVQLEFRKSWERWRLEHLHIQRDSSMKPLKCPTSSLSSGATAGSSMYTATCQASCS

Regarding `CCCCCCCCCCCCCCCC(=O)NC(CCC(=O)NCCCC[C@H](NC(=O)[C@@H](N)Cc1c[nH]cn1)C(=O)N[C@@H](CCC(=O)O)C(=O)NCC(=O)N[C@H](C(=O)N[C@@H](Cc1ccccc1)C(=O)N[C@H](C(=O)N[C@@H](CO)C(=O)N[C@@H](CC(=O)O)C(=O)N[C@H](C(=O)N[C@@H](CO)C(=O)N[C@@H](CO)C(=O)N[C@@H](Cc1ccc(O)cc1)C(=O)N[C@@H](CC(C)C)C(=O)N[C@@H](CCC(=O)O)C(=O)NCC(=O)N[C@@H](CCC(N)=O)C(=O)N[C@@H](C)C(=O)N[C@@H](C)C(=O)N[C@@H](CCCN=C(N)N)C(=O)N[C@@H](CCC(=O)O)C(=O)N[C@@H](Cc1ccccc1)C(=O)N[C@H](C(=O)N[C@@H](C)C(=O)N[C@@H](Cc1c[nH]c2ccccc12)C(=O)N[C@@H](CC(C)C)C(=O)N[C@H](C(=O)N[C@@H](CCCN=C(N)N)C(=O)NCC(=O)N[C@@H](CCCN=C(N)N)C(=O)NCC(=O)O)C(C)C)[C@@H](C)CC)C(C)C)[C@@H](C)O)[C@@H](C)O)C(=O)O` (stereo not given in full), the EC50 worked out at 1.26 nM.
In the case of `CCCCCCCCCCCCCCCC(=O)NC(CCC(=O)NCCCCC(NC(=O)CNC(=O)[C@H](CCCN=C(N)N)NC(=O)CNC(=O)[C@H](CCCN=C(N)N)NC(=O)[C@@H](NC(=O)[C@H](CC(C)C)NC(=O)[C@H](Cc1c[nH]c2ccccc12)NC(=O)[C@H](C)NC(=O)[C@@H](NC(=O)[C@H](Cc1ccccc1)NC(=O)[C@H](CCC(=O)O)NC(=O)[C@H](CCCN=C(N)N)NC(=O)[C@H](C)NC(=O)[C@H](C)NC(=O)[C@H](CCC(N)=O)NC(=O)CNC(=O)[C@H](CCC(=O)O)NC(=O)[C@H](CC(C)C)NC(=O)[C@H](Cc1ccc(O)cc1)NC(=O)[C@H](CO)NC(=O)[C@H](CO)NC(=O)[C@@H](NC(=O)[C@H](CC(=O)O)NC(=O)[C@H](CO)NC(=O)[C@@H](NC(=O)[C@H](Cc1ccccc1)NC(=O)[C@@H](NC(=O)CNC(=O)[C@H](CCC(=O)O)NC(=O)[C@H](C)NC(=O)[C@@H](N)Cc1c[nH]cn1)[C@@H](C)O)[C@@H](C)O)C(C)C)[C@@H](C)CC)C(C)C)C(=O)O)C(=O)O` (stereo not given in full), the EC50 was 0.053 nM.
In the case of `CCCCCCCCCCCCCCCC(=O)NC(CCC(=O)NCCCCC(NC(=O)[C@H](CCC(=O)O)NC(=O)[C@H](CCCN=C(N)N)NC(=O)CNC(=O)[C@H](CCCN=C(N)N)NC(=O)[C@@H](NC(=O)[C@H](CC(C)C)NC(=O)[C@H](Cc1c[nH]c2ccccc12)NC(=O)[C@H](C)NC(=O)[C@@H](NC(=O)[C@H](Cc1ccccc1)NC(=O)[C@H](CCC(=O)O)NC(=O)[C@H](CCCN=C(N)N)NC(=O)[C@H](C)NC(=O)[C@H](C)NC(=O)[C@H](CCC(N)=O)NC(=O)CNC(=O)[C@H](CCC(=O)O)NC(=O)[C@H](CC(C)C)NC(=O)[C@H](Cc1ccc(O)cc1)NC(=O)[C@H](CO)NC(=O)[C@H](CO)NC(=O)[C@@H](NC(=O)[C@H](CC(=O)O)NC(=O)[C@H](CO)NC(=O)[C@@H](NC(=O)[C@H](Cc1ccccc1)NC(=O)[C@@H](NC(=O)CNC(=O)[C@H](CCC(=O)O)NC(=O)[C@H](C)NC(=O)[C@@H](N)Cc1c[nH]cn1)[C@@H](C)O)[C@@H](C)O)C(C)C)[C@@H](C)CC)C(C)C)C(=O)O)C(=O)O` (stereo not given in full), the EC50 is 0.0272 nM.
As for `CCCCCCCCCCCCCCCCCC(=O)NC(CCC(=O)NCCCCC(NC(=O)CNC(=O)[C@H](CCCN=C(N)N)NC(=O)CNC(=O)[C@H](CCCN=C(N)N)NC(=O)[C@@H](NC(=O)[C@H](CC(C)C)NC(=O)[C@H](Cc1c[nH]c2ccccc12)NC(=O)[C@H](C)NC(=O)[C@@H](NC(=O)[C@H](Cc1ccccc1)NC(=O)[C@H](CCC(=O)O)NC(=O)[C@H](CCCN=C(N)N)NC(=O)[C@H](C)NC(=O)[C@H](C)NC(=O)[C@H](CCC(N)=O)NC(=O)CNC(=O)[C@H](CCC(=O)O)NC(=O)[C@H](CC(C)C)NC(=O)[C@H](Cc1ccc(O)cc1)NC(=O)[C@H](CO)NC(=O)[C@H](CO)NC(=O)[C@@H](NC(=O)[C@H](CC(=O)O)NC(=O)[C@H](CO)NC(=O)[C@@H](NC(=O)[C@H](Cc1ccccc1)NC(=O)[C@@H](NC(=O)CNC(=O)[C@H](CCC(=O)O)NC(=O)[C@H](C)NC(=O)[C@@H](N)Cc1c[nH]cn1)[C@@H](C)O)[C@@H](C)O)C(C)C)[C@@H](C)CC)C(C)C)C(=O)O)C(=O)O` (stereo not given in full), the EC50 amounted to 0.115 nM.
Under `CCCCCCCCCCCCCCCC(=O)NC(CCC(=O)NCCCC[C@H](NC(=O)[C@H](C)NC(=O)[C@H](C)NC(=O)[C@H](CCC(N)=O)NC(=O)CNC(=O)[C@H](CCC(=O)O)NC(=O)[C@H](CC(C)C)NC(=O)[C@H](Cc1ccc(O)cc1)NC(=O)[C@H](CO)NC(=O)[C@H](CO)NC(=O)[C@@H](NC(=O)[C@H](CC(=O)O)NC(=O)[C@H](CO)NC(=O)[C@@H](NC(=O)[C@H](Cc1ccccc1)NC(=O)[C@@H](NC(=O)CNC(=O)[C@H](CCC(=O)O)NC(=O)[C@H](C)NC(=O)CCc1c[nH]cn1)[C@@H](C)O)[C@@H](C)O)C(C)C)C(=O)N[C@@H](CCC(=O)O)C(=O)N[C@@H](Cc1ccccc1)C(=O)N[C@H](C(=O)N[C@@H](C)C(=O)N[C@@H](Cc1c[nH]c2ccccc12)C(=O)N[C@@H](CC(C)C)C(=O)N[C@H](C(=O)N[C@@H](CCCN=C(N)N)C(=O)NCC(=O)N[C@@H](CCCN=C(N)N)C(=O)NCC(=O)O)C(C)C)[C@@H](C)CC)C(=O)O` (stereo not given in full) stands 0.687 nM.
Under `CCCCCCCCCC(CCCCC(=O)NCCCCC(NC(=O)CNC(=O)[C@H](CCCN=C(N)N)NC(=O)CNC(=O)[C@H](CCCN=C(N)N)NC(=O)[C@@H](NC(=O)[C@H](CC(C)C)NC(=O)[C@H](Cc1c[nH]c2ccccc12)NC(=O)[C@H](C)NC(=O)[C@@H](NC(=O)[C@H](Cc1ccccc1)NC(=O)[C@H](CCC(=O)O)NC(=O)[C@H](CCCN=C(N)N)NC(=O)[C@H](C)NC(=O)[C@H](C)NC(=O)[C@H](CCC(N)=O)NC(=O)CNC(=O)[C@H](CCC(=O)O)NC(=O)[C@H](CC(C)C)NC(=O)[C@H](Cc1ccc(O)cc1)NC(=O)[C@H](CO)NC(=O)[C@H](CO)NC(=O)[C@@H](NC(=O)[C@H](CC(=O)O)NC(=O)[C@H](CO)NC(=O)[C@@H](NC(=O)[C@H](Cc1ccccc1)NC(=O)[C@@H](NC(=O)CNC(=O)[C@H](CCC(=O)O)NC(=O)[C@H](C)NC(=O)[C@@H](N)Cc1c[nH]cn1)[C@@H](C)O)[C@@H](C)O)C(C)C)[C@@H](C)CC)C(C)C)C(=O)O)C(=O)O` (stereo not given in full) stands 0.0056 nM.
For `CCCCCCCC(=O)NCCCC[C@H](NC(=O)[C@@H](NC(=O)[C@H](CC(C)C)NC(=O)[C@H](Cc1c[nH]c2ccccc12)NC(=O)[C@H](C)NC(=O)[C@@H](NC(=O)[C@H](Cc1ccccc1)NC(=O)[C@H](CCC(=O)O)NC(=O)[C@H](CCCN=C(N)N)NC(=O)[C@H](C)NC(=O)[C@H](C)NC(=O)[C@H](CCC(N)=O)NC(=O)CNC(=O)[C@H](CCC(=O)O)NC(=O)[C@H](CC(C)C)NC(=O)[C@H](Cc1ccc(O)cc1)NC(=O)[C@H](CO)NC(=O)[C@H](CO)NC(=O)[C@@H](NC(=O)[C@H](CC(=O)O)NC(=O)[C@H](CO)NC(=O)[C@@H](NC(=O)[C@H](Cc1ccccc1)NC(=O)[C@@H](NC(=O)CNC(=O)[C@H](CCC(=O)O)NC(=O)[C@H](C)NC(=O)CCc1c[nH]cn1)[C@@H](C)O)[C@@H](C)O)C(C)C)[C@@H](C)CC)C(C)C)C(=O)NCC(=O)N[C@@H](CCCN=C(N)N)C(=O)NCC(=O)O` (Desaminohistidyl-AEGTFTSDVSSYLEGQAAREFIAWLVK(Octanoyl)GRG-OH), the EC50 was found to be 0.236 nM.
As to `CCCCCCCC(=O)NC(CCC(=O)NCCCC[C@H](NC(=O)[C@@H](NC(=O)[C@H](CC(C)C)NC(=O)[C@H](Cc1c[nH]c2ccccc12)NC(=O)[C@H](C)NC(=O)[C@@H](NC(=O)[C@H](Cc1ccccc1)NC(=O)[C@H](CCC(=O)O)NC(=O)[C@H](CCCN=C(N)N)NC(=O)[C@H](C)NC(=O)[C@H](C)NC(=O)[C@H](CCC(N)=O)NC(=O)CNC(=O)[C@H](CCC(=O)O)NC(=O)[C@H](CC(C)C)NC(=O)[C@H](Cc1ccc(O)cc1)NC(=O)[C@H](CO)NC(=O)[C@H](CO)NC(=O)[C@@H](NC(=O)[C@H](CC(=O)O)NC(=O)[C@H](CO)NC(=O)[C@@H](NC(=O)[C@H](Cc1ccccc1)NC(=O)[C@@H](NC(=O)CNC(=O)[C@H](CCC(=O)O)NC(=O)[C@H](C)NC(=O)CCc1c[nH]cn1)[C@@H](C)O)[C@@H](C)O)C(C)C)[C@@H](C)CC)C(C)C)C(=O)NCC(=O)N[C@@H](CCCN=C(N)N)C(=O)NCC(=O)O)C(=O)O` (stereo not given in full) (Desaminohistidyl-AEGTFTSDVSSYLEGQAAREFIAWLVK([ξγGlu-Octanoyl])GRG-OH), the EC50 is 0.169 nM.
Under `CCCCCCCCCCCCCCCC(=O)NC(CCC(=O)NCCCC[C@H](NC(=O)[C@@H](NC(=O)[C@H](CC(C)C)NC(=O)[C@H](Cc1c[nH]c2ccccc12)NC(=O)[C@H](C)NC(=O)[C@@H](NC(=O)[C@H](Cc1ccccc1)NC(=O)[C@H](CCC(=O)O)NC(=O)[C@H](CCCN=C(N)N)NC(=O)[C@H](C)NC(=O)[C@H](C)NC(=O)[C@H](CCC(N)=O)NC(=O)CNC(=O)[C@H](CCC(=O)O)NC(=O)[C@H](CC(C)C)NC(=O)[C@H](Cc1ccc(O)cc1)NC(=O)[C@H](CO)NC(=O)[C@H](CO)NC(=O)[C@@H](NC(=O)[C@H](CC(=O)O)NC(=O)[C@H](CO)NC(=O)[C@@H](NC(=O)[C@H](Cc1ccccc1)NC(=O)[C@@H](NC(=O)CNC(=O)[C@H](CCC(=O)O)NC(=O)[C@H](C)NC(=O)CCc1c[nH]cn1)[C@@H](C)O)[C@@H](C)O)C(C)C)[C@@H](C)CC)C(C)C)C(=O)NCC(=O)N[C@@H](CCCN=C(N)N)C(=O)NCC(=O)O)C(=O)O` (stereo not given in full) (Desaminohistidyl-AEGTFTSDVSSYLEGQAAREFIAWLVK([ξγGlu-Palmitoyl])GRG-OH) stands 2.36 nM; under `CCCCCCCCCCCCCCCC(=O)NC(CCC(=O)NCCCC[C@H](NC(=O)[C@H](CO)NC(=O)[C@@H](NC(=O)[C@H](CC(=O)O)NC(=O)[C@H](CO)NC(=O)[C@@H](NC(=O)[C@H](Cc1ccccc1)NC(=O)[C@@H](NC(=O)CNC(=O)[C@H](CCC(=O)O)NC(=O)[C@H](C)NC(=O)[C@@H](N)Cc1c[nH]cn1)[C@@H](C)O)[C@@H](C)O)C(C)C)C(=O)N[C@@H](Cc1ccc(O)cc1)C(=O)N[C@@H](CC(C)C)C(=O)N[C@@H](CCC(=O)O)C(=O)NCC(=O)N[C@@H](CCC(N)=O)C(=O)N[C@@H](C)C(=O)N[C@@H](C)C(=O)N[C@@H](CCCN=C(N)N)C(=O)N[C@@H](CCC(=O)O)C(=O)N[C@@H](Cc1ccccc1)C(=O)N[C@H](C(=O)N[C@@H](C)C(=O)N[C@@H](Cc1c[nH]c2ccccc12)C(=O)N[C@@H](CC(C)C)C(=O)N[C@H](C(=O)N[C@@H](CCCN=C(N)N)C(=O)NCC(=O)N[C@@H](CCCN=C(N)N)C(=O)NCC(=O)O)C(C)C)[C@@H](C)CC)C(=O)O` (stereo not given in full) (H-HAEGTFTSDVSK([ξγGlu-Palmitoyl])YLEGQAAREFIAWLVRGRG-OH), 0.0352 nM.
